Laboratory results published in patent publication US20260085101A1, “NOVEL PLATELET DERIVED GROWTH FACTOR PEPTIDE MIMETIC” (THE UNIVERSITY OF SYDNEY, priority 2022, published 2026).

Assays:
Assay type in all cases: cell-based
[1] = system: C3H10T½ mouse embryonic fibroblasts; experiment: EdU proliferation assay (flow cytometry); settings: C3H10T½ cells, 1% FBS; for stimulation of proliferation relative to 1% FBS: 24 hr, 20 ng/ml PDGF, 2 μg/ml peptides; for stimulation of the PDGF ligand/receptor pathway inferred from inhibition of EdU levels by AG1296 cotreatment: cotreatment with 10 μM AG1296
Description: FIG. 8. Proliferation of C3H10T½ Cells Following Treatment with PDGF and Novel PDGF Mimetic Peptides. Cultured C3H10T½ mouse embryonic fibroblast cells were treated with 20 ng/ml recombinant PDGF−AB or PDGF−BB protein ligands, and 2 μg/ml of novel PDGF mimetics JC5 or JC5a for 24 hr, in the presence of 1% fetal bovine serum (FBS). Percent proliferating cell was determined after a 2 hr pulse with nucleotide analogue EdU at the end of the incubation period. […] Co-treatment of protein/peptides with 10 μM of PDGF receptor antagonist, AG1296, confirmed that PDGF-BB-stimulated proliferation occurred via the PDGF ligand/receptor pathway. […] Error bars represent ±SD, n=3. Statistical analysis was using One-Way Anova: * p<0.05; ** p<0.01; *** p<0.001; **** p<0.0001. The mitotic effects of PDGF mimetic peptides JC5 and JC5a were tested using cultured C3H10T½ mouse embryonic fibroblasts. Proliferation was assayed after a pulse of nucleotide analogue 5-ethynyl-2′-deoxyuridine (EdU) and fluorescent detection using flow cytometry. Cells were treated with 20 ng/ml PDGF−BB or PDGF−AB, and 2 μg/ml of peptides JC5 or JC5a, in the presence of 1% fetal bovine serum (FBS) and DMEM for 24 hr. 10% FBS was used as a positive control, and co-treatments with specific PDGF receptor antagonist, AG1296, was used to ascertain whether proliferation occurred via the PDGF ligand/receptor pathway. Assays were performed in biological triplicate.

PDGF receptor = target: T1, PDGF receptor (Mus musculus, UniProt P05622); experiment: Western blot for phosphorylation of ERK in C2C12 cells (PDGF receptor activation); settings: for phosphorylation of ERK (pERK): 10 ng/ml PDGF, 1 μg/ml peptide, vs no treatment and AG1296+PDGF−AB controls
T1 construct: Phosphorylation of ERK following treatment of C2C12 Cells with PDGF and JC5; endogenous in cells; host or cells: C2C12 mouse myoblasts
Description: FIG. 5. Phosphorylation of ERK following treatment of C2C12 Cells with PDGF and JC5. Western blots for total (ERK) and phosphorylated ERK (pERK) at 42 and 44 kDa show an increase in phosphorylation following treatment with 10 ng/ml PDGF−BB and 1 μg/ml of JC5. FIG. 6. Phosphorylation of ERK following treatment of C2C12 Cells with PDGF and JC5a. Western blots for total (ERK) and phosphorylated ERK (pERK) at 42 and 44 kDa show an increase in phosphorylation 10 minutes post treatment with 10 ng/ml PDGF−BB and 1 μg/ml of novel mimetic peptide JC5a. JC5a maintained this increased phosphorylation of ERK at 30 minutes post treatment. PDGF receptor activation takes place via autophosphorylation of tyrosine […] residues at key sites throughout the intracellular domain. Autophosphorylation engages different signaling pathways, including ERK (MAPK) which participates in proliferation, cell survival, angiogenesis, and chemotactic activity of cells. Phosphorylation of ERK indicates successful activation of the PDGF receptor.

C2C12 mouse myoblasts = experiment: Collagen gel contraction assay with C2C12 cells; settings: for collagen gel contracted to % of its initial surface area: 24-hour incubation, 10 ng/ml PDGF, 1 μg/ml peptides, 10 μM AG1296, mean (±SD); for difference in collagen gel area versus negative control AG1296 co-treated with PDGF−AB (Mean Diff.) / difference in collagen gel area versus no treatment control (Mean Diff.): 24 hours; for difference in collagen gel area versus negative control AG1296 co-treated with PDGF−AB (Mean Diff.): vs negative control (55.25%); for difference in collagen gel area versus no treatment control (Mean Diff.): vs no treatment control (41.27%)
Excerpt: FIG. 3. Collagen Contraction of C2C12 Mouse Fibroblasts Treated with PDGF and peptides JC5 and JC5a. […] Error bars represent ±SD, n=8/4. The function of Compounds Ia (also referred to herein as JC5) and Ib (also referred to herein as JC5a) has been tested in vitro on the continuous cell line, C2C12 mouse myoblasts. In these in vitro assays recombinant PDGF−AB and −BB have been used as positive controls along with a serum starved no treatment control and the PDGF receptor inhibitor AG1296 co-treated with PDGF−AB as a negative control. The in vitro assays were designed to assess the major known functions of PDGF whilst also considering functions that are relevant to its in vivo applications. These functions were chemotaxis, collagen contraction, vascular tube formation and activation of the PDGF receptors via phosphorylation of Akt and Erk. Collagen contraction is an important function during wound healing of many tissues including the heart. This can be simulated in vitro using a collagen gel contraction assay. This was assessed using C2C12 cells treated with the positive controls 10 ng/ml recombinant PDGF-BB and PDGF−AB, negative control 10 μM AG1296 co-treated with 10 ng/ml recombinant PDGF−AB, a serum starved no treatment control and 1 μg/ml of the peptides JC5 and JC5a. C2C12 mouse myoblasts were seeded in a 3D collagen gel crosslinked with NaOH and incubated at 37° C. for 24 hours following treatment with the four controls and peptides JC5 and JC5a.

T1 sequence (P05622 32-1098): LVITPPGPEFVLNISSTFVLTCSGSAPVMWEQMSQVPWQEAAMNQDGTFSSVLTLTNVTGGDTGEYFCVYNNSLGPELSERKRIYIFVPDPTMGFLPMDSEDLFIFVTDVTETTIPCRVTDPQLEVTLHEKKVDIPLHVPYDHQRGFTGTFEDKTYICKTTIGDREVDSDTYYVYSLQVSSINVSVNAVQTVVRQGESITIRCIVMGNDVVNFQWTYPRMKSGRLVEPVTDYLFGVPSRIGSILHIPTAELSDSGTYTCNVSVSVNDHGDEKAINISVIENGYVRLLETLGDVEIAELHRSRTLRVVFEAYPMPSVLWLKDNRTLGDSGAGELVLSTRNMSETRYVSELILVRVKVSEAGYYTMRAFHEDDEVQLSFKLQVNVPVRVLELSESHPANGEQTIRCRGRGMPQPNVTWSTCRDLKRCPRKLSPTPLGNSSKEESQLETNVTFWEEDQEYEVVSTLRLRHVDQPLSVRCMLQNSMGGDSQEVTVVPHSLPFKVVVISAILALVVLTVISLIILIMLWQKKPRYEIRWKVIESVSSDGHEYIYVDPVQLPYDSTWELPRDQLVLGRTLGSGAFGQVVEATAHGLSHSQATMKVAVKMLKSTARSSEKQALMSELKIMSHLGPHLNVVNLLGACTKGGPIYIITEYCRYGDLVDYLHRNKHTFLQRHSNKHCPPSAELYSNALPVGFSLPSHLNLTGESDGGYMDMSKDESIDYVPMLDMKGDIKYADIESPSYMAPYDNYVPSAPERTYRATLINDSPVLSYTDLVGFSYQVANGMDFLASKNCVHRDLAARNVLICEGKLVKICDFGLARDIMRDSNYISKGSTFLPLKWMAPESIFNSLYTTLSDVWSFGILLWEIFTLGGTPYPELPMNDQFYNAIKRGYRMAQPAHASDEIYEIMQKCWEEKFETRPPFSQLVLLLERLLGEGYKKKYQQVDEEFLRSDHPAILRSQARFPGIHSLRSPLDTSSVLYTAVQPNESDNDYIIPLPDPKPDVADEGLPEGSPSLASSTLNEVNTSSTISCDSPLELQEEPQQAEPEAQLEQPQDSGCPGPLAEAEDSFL

Compound	stimulation of proliferation relative to 1% FBS [1]	phosphorylation of ERK (pERK) (PDGF receptor)	phosphorylation of ERK (pERK) at 30 minutes post treatment (PDGF receptor; 1 μg/ml JC5a, 30 minutes)	collagen gel contracted to % of its initial surface area (C2C12 mouse myoblasts) [%]	difference in collagen gel area versus negative control AG1296 co-treated with PDGF−AB (Mean Diff.) (C2C12 mouse myoblasts) [%]	stimulation of the PDGF ligand/receptor pathway inferred from inhibition of EdU levels by AG1296 cotreatment [1]	difference in collagen gel area versus no treatment control (Mean Diff.) (C2C12 mouse myoblasts) [%]
CCCCCCCCCCCCCCCC(=O)NCCCC[C@H](NC(=O)[C@H](CCC(=O)O)NC(=O)[C@H](Cc1ccc(O)cc1)NC(=O)[C@@H](CCC(=O)O)NC(=O)CCOCCOCCOCCNC(=O)CCOCCOCCOCCNC(=O)[C@@H](CCCCN)NC(=O)[C@@H](CCCCN)NC(=O)[C@@H](CCCNC(=N)N)NC(=O)[C@@H](NC(=O)[C@@H](NC(=O)[C@H](CCC(=O)O)NC(=O)[C@@H](NC(=O)[C@H](CCCCN)NC(=O)[C@@H](CCCNC(=N)N)NC(=O)[C@H](NC(=O)[C@H](N)CSSC[C@@H](N)C(=O)N[C@@H](C(=O)N[C@H](CCCNC(=N)N)C(=O)N[C@@H](CCCCN)C(=O)N[C@H](C(=O)N[C@@H](CCC(=O)O)C(=O)N[C@H](C(=O)N[C@H](C(=O)N[C@H](CCCNC(=N)N)C(=O)N[C@H](CCCCN)C(=O)N[C@H](CCCCN)C(=O)NCCOCCOCCOCCC(=O)NCCOCCOCCOCCC(=O)N[C@H](CCC(=O)O)C(=O)N[C@@H](Cc1ccc(O)cc1)C(=O)N[C@@H](CCC(=O)O)C(=O)N[C@@H](CCCCNC(=O)CCCCCCCCCCCCCCC)C(=O)N[C@@H](CCC(=O)O)C(=O)N[C@@H](Cc1ccc(O)cc1)C(=O)N[C@@H](CCC(=O)O)C(N)=O)C(C)C)[C@H](C)CC)[C@@H](C)CC)C(C)C)C(C)C)[C@@H](C)CC)[C@H](C)CC)C(C)C)C(=O)N[C@@H](CCC(=O)O)C(=O)N[C@@H](Cc1ccc(O)cc1)C(=O)N[C@@H](CCC(=O)O)C(N)=O [JC5a, PDGF Loop III dimer USA dimer (CVRKIEIVRKK)2(Peg3)2(EYEK(Palm)EYE)2-C′]	did not significantly stimulate proliferation	phosphorylation of ERK (pERK) can be seen	preserved phosphorylation of ERK (pERK)	33.28	21.96		
PDGF Loop III dimer HSA (CVRKIEIVRKK)2(Peg3)2EYEK(Palm)EYE-C′ [JC5]	did not significantly stimulate proliferation	phosphorylation of ERK (pERK) can be seen		23.01	32.23	weak stimulation of the PDGF ligand/receptor pathway	18.26
PDGF−AB: recombinant human PDGF−AB, AB heterodimer of recombinant PDGF, positive control	did not significantly stimulate proliferation	pERK is induced by PDGF−BB but not PDGF−AB		22.46	32.79	weak stimulation of the PDGF ligand/receptor pathway	18.82
